The values below come from patent publication US5164391A, “Hydantoin derivatives for treating complications of diabetes and circulatory diseases” (priority 1989, dated 1992).

One assay deals with thoracic aorta. Briefly: Action to the aorta of guinea pig (relaxation of contracted spiral samples). More on the design: species or system Hartley guinea pigs. The conditions noted are these: Cavia porcellus. From the text: Hartley guinea pigs (body weight of 300-500 g) were rendered unconscious fainted by knocking their head and fixed upwardly. A thoracic aorta was taken out to prepare spiral samples, each having size of about 2×25 mm. The sample was suspended in a Magnus tube under a load of about 1 g and upper end of the sample was connected through a silk thread to a FD pick-up to record a change in isometric tension.
Composition of Krebs-Henseleit solution:
Prior to the experiment, the sample in the Magnus tube was left to stand, as it was, for 60 to 90 minutes and in such period of time, the Krebs-Henseleit solution was exchanged to fresh one at an interval of 20 to 30 minutes.
When the contraction of the sample became constant, the compound to be tested was gradually added in a amount starting at a concentration of 10^-8, to […] to observe the contraction of the sample. Finally, papaverine was added therein, so as to make its final concentration of 2×10^-5 g/ml, to check and record also the relaxing reaction or atony caused by the papaverine.

For another assay, the target named is aldose reductase (Rattus norvegicus, UniProt P07943). Nature of the assay: Inhibition to aldose reductase (method of Kador et al). In kind it is biochemical. The conditions noted are these: read-out: IC50 (50% Inhibitory Concentration). From the text: An ability for reducing or inhibiting activity of aldose reductase was checked, in accordance with the method of Kador et al as described in "Biophys.

For a further assay, the system named is right atrium. Briefly: Action to heart of guinea pig: right atrium (pulsations).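 On Pulsation: Dash means no recognizable influence on pulsation rate.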 More on the design: species or system Hartley guinea pigs. The following applies: for inhibition at 100 µM / inhibition at 10 µM: Cavia porcellus, read-out: Pulsation. Here is the method: (§1) Hartley guinea pigs (body weight of 300-400 g) were rendered unconscious by knocking their head and fixed upwardly to exenterate their heart. […] The vessel was previously filled with the Krebs-Henseleit solution and the said mixed gas was continuously fed therein.
(§2) Samples were prepared by separating from a ventricular muscle a right and left atrium, along an auricloventricular furrow or groove from the center-line of the right and left auricles.
A contraction of the sample, due to a compound to be tested, was recorded through an FD pick-up. Concurrently, pulsations were input to a measuring unit to count and record number of the pulsations.

Another assay concerns platelet. Briefly: Inhibition of platelet agglutination (rat PRP). In kind it is cell-based. The method, then: A blood was taken from a descending aorta of the rat anesthetized with ethyl ether. To the blood, 3.8% aqueous sodium citrate was added by a volume of 1/3 and the resulting solution was centrifuged (1500 rpm) at 4° C. for 10 minutes to obtain a supernatant which was designated as "PRP (platelet rich plasma)". The remaining residue was centrifuged (3000 rpm) at 4° C. for 10 minutes to obtain a supernatant which was designated as "PPP (platelet poor plasma)". A stirrer bar and PRP (267 μl) were inserted in a cell and PPP (more than 300 μl) was charged in another cell. A transmissivity to PRP and PPP was measured and set as "0%" for the former case and as "100%" for the latter case.
After a preincubation for 1 minute, a compound to be tested was added by 3 μl and then an agglutination causing substance (collagen or ADP) was added by 30 μl at a time lapsed of 1 minute from the addition of testing compound. For a control group, 3 μl of dimethylsulfoxide was added, instead of the testing compound. A maximum value in transmissivity change after the addition of agglutination causing substance was determined and made as a platelet agglutination rate (%).

The test system of another assay is left atrium. Nature of the assay: Action to heart of guinea pig: left atrium (contraction power). More on the design: species or system Hartley guinea pigs. The method, then: as §1, §2
The atrium was driven by contacting it with a platinum bipolar electrode attached to the cellfin and by stimulating the same with a rectangular pulse (1 Hz, 1 msec, 10 V). A movement of the sample was recorded by connecting the sample to a recorder through a silk thread and a FD pick-up.

Where [1] appears, read: contraction by KCl 2.5×10^-2 M, 37° C., read-out: IC50 KCl contraction (50% relaxing).
[2] abbreviates: contraction by norepinephrine 10^-6 g/ml, 37° C., read-out: IC50 N.E. contraction (50% relaxing).
Where [3] appears, read: 10^-5 (M), right atrium, 32°±1° C.
Setting [4] is: 10^-4 (M), right atrium, 32°±1° C.
The mark [5] stands for this setting: agglutination caused by collagen, read-out: IC50 Collagen.
Setting [6] is: 10^-5 (M), left atrium, 32°±1° C.
[7] abbreviates: Cavia porcellus, 10^-4 (M), left atrium, 32°±1° C., read-out: Contraction.
Setting [8] is: Cavia porcellus, read-out: Contraction.
[9] abbreviates: agglutination caused by ADP, N.D. : not detected, read-out: IC50 ADP.

The structures appear in SMILES notation. Where two headings read alike, the source gives them in different places.

As for `O=C1NC(=O)[C@@]2(C[C@@H](C(=O)NO)Oc3ccc(F)cc32)N1` [Example 7, (2S,4S)-6-Fluoro-2',5'-dioxospiro[chroman-4,4'-imidazolidine]-2-hydroxamic acid], the IC50 with thoracic aorta (setting [1]) was > 1000 µM; with thoracic aorta (setting [2]) it was > 1000 µM; at aldose reductase, 0.037 µM.

With `O=C1NC(=O)[C@@]2(C[C@@H](C(=O)NNc3ccc(Cl)cc3)Oc3ccc(F)cc32)N1` [Example 4, (2S,4S)-6-Fluoro-2',5'-dioxospiro[chroman-4,4'-imidazolidine]-2-(N'-4-chlorophenyl)carbohydrazide], in the assay on right atrium (setting [3]), the Pulsation entry is recorded as “-”. Further, the inhibition at 100 µM with right atrium (setting [4]) and in the assay on left atrium (setting [7]) was 10 to 20% in each case. Further, the IC50 with platelet (setting [5]) was 180 µM; with thoracic aorta (setting [1]) it was > 1000 µM; in the assay with thoracic aorta (setting [2]) it was > 1000 µM; at aldose reductase, 0.026 µM. Further, in the assay on left atrium (setting [6]), the Contraction result is “-”.

On to `CC(C)NCC(O)COc1cccc2ccccc12` (centres unmarked) [A, Propranolol, reference compound], for which, in the assay with right atrium, the inhibition at 10 µM is > 20% and the inhibition at 100 µM is > 20%. For the same compound, in the assay on left atrium (setting [8]), the inhibition at 10 µM was > 20% and the inhibition at 100 µM was > 20%.

On to `O=C1NC(=O)[C@@]2(C[C@@H](C(=O)NCCN3CCC(Cc4ccccc4)CC3)Oc3ccc(F)cc32)N1` [Example 11, (2S,4S)-N-[2-(4-Benzylpiperidin-1-yl)ethyl]-6-fluoro-2'5'-dioxospiro[chroman-4,4'-imidazolidine]-2-carboxamide], for which the inhibition at 100 µM in the assay on right atrium (setting [4]) was > 20%; in the assay on left atrium (setting [7]) it was 10 to 20%. In addition, in the assay on right atrium (setting [3]), the inhibition at 10 µM is 10 to 20%. In addition, the IC50 was 370 µM in the assay on platelet (setting [9]); 83 µM in the assay on platelet (setting [5]); 1.9 µM in the assay on thoracic aorta (setting [1]); 0.1 µM with thoracic aorta (setting [2]); 1.9 µM at aldose reductase. In addition, the Contraction result in the assay on left atrium (setting [6]) was “-”.

For `O=C1NC(=O)[C@@]2(C[C@@H](C(=O)NCCN3CCN(C(c4ccccc4)c4ccccc4)CC3)Oc3ccc(F)cc32)N1` [Example 10, (2S,4S)-N-{2-[4-(Diphenylmethyl)piperazin-1-yl]ethyl}-6-fluoro-2',5'-dioxospiro[chroman-4,4'-imidazolidine]-2-carboxamide], in the assay with right atrium (setting [4]), the inhibition at 100 µM is > 20%. Also, the inhibition at 10 µM with right atrium (setting [3]) lay in the range of 10 to 20%. Further, the IC50 was found to be 700 µM in the assay with platelet (setting [9]); 410 µM with platelet (setting [5]); 1.8 µM in the assay with thoracic aorta (setting [1]); 100 µM in the assay with thoracic aorta (setting [2]); 0.15 µM on aldose reductase. Besides, the Contraction result in the assay with left atrium (10^-4 (M), left atrium, 32°±1° C.) was “-”; with left atrium (setting [6]) it was “-”.

Consider `O=C1NC(=O)[C@@]2(C[C@@H](C(=O)NCCn3ccnc3)Oc3ccc(F)cc32)N1` [Example 14, (2S,4S)-N-{2-[(Imidazol-1-yl)ethyl]}-6-fluoro-2',5'-dioxospiro[chroman-4,4'-imidazolidine]-2-carboxamide], for which the figures for the IC50 in the assay on thoracic aorta (setting [1]), in the assay on thoracic aorta (setting [2]) and at aldose reductase were > 1000 µM, > 1000 µM and 0.65 µM, respectively.

Take `COc1ccc(NNC(=O)[C@@H]2C[C@]3(NC(=O)NC3=O)c3cc(F)ccc3O2)cc1` [Example 5, (2S,4S)-6-Fluoro-2',5'-dioxospiro[chroman-4,4'-imidazolidine]-2-(N'-4-methoxyphenyl)carbohydrazide]: the Pulsation result with right atrium (setting [4]) and in the assay with right atrium (setting [3]) was “-” each time. For the same compound, the IC50 came to 26 µM in the assay with platelet (setting [5]), 5 µM in the assay with thoracic aorta (setting [1]), 30 µM with thoracic aorta (setting [2]) and 0.044 µM at aldose reductase. Further, in the assay with left atrium (setting [6]), the Contraction entry was “-”. Besides, the inhibition at 100 µM in the assay on left atrium (setting [7]) fell in the range of 10 to 20%.

For `O=C1NC(=O)[C@@]2(C[C@@H](C(=O)NNc3cccc4ccccc34)Oc3ccc(F)cc32)N1` [Example 6, (2S,4S)-6-Fluoro-2',5'-dioxospiro[chroman-4,4'-imidazolidine]-2-(N'-1-naphthyl)carbohydrazide], in the assay on right atrium (setting [3]), the Pulsation entry is on record as “-”. The inhibition at 100 µM in the assay on right atrium (setting [4]) and with left atrium (setting [7]) was 10 to 20% each time. The IC50 in the assay on platelet (setting [5]) is 230 µM; at aldose reductase, 0.013 µM. In the assay with left atrium (setting [6]), the Contraction result is listed as “-”.

As to `COc1cc(/C=C/C(=O)N2CCN(CC(=O)N3CCCC3)CC2)cc(OC)c1OC` [Cinepazide, reference compound], the IC50 in the assay on thoracic aorta (read-out: IC50 KCl contraction (50% relaxing)) was found to be 2000 µM; in the assay on thoracic aorta (read-out: IC50 N.E. contraction (50% relaxing)), 1000 µM.

For the compound `COc1cc(C=CC(=O)N2CCN(CCNC(=O)[C@@H]3C[C@]4(NC(=O)NC4=O)c4cc(F)ccc4O3)CC2)cc(OC)c1OC` [Example 12, (2S,4S)-N-{2-[4-(3,4,5-Trimethoxycinnamoyl)piperazin-1-yl]ethyl}-6-fluoro-2',5'-dioxospiro[chroman-4,4'-imidazolidine]-2-carboxamide], the Pulsation result in the assay on right atrium (setting [4]) and with right atrium (setting [3]) was “-” each time. The Contraction result in the assay on left atrium (setting [6]) was “-”. In addition, in the assay with left atrium (setting [7]), the inhibition at 100 µM fell in the range of 10 to 20%. For the same compound, the IC50 in the assay on thoracic aorta (setting [1]) is 160 µM; in the assay with thoracic aorta (setting [2]) it was 30 µM; at aldose reductase, 0.15 µM.

As for `COc1ccc2c(c1)c(CC(=O)O)c(C)n2C(=O)c1ccc(Cl)cc1` [Indomethacin, reference compound], in the assay with platelet (setting [5]), the IC50 was 68 µM.

For the compound `CNNC(=O)[C@@H]1C[C@]2(NC(=O)NC2=O)c2cc(F)ccc2O1` [Example 2, (2S,4S)-6-Fluoro-2',5'-dioxospiro[chroman-4,4'-imidazolidine]-2-(N'-methyl)carbohydrazide], the IC50 in the assay on thoracic aorta (setting [1]) is > 1000 µM; with thoracic aorta (setting [2]), > 1000 µM; at aldose reductase it was 0.3 µM.

Turning to `O=C1NC(=O)[C@@]2(C[C@@H](C(=O)NCCN3CCN(CC=Cc4ccccc4)CC3)Oc3ccc(F)cc32)N1` [Example 8, (2S,4S)-N-[2-(4-Cinnamylpiperazin-1-yl)ethyl]-6-fluoro-2',5'-dioxospiro[chroman-4,4'-imidazolidine]-2-carboxamide], the Pulsation entry with right atrium (setting [3]) was “-”. The inhibition at 100 µM in the assay on right atrium (setting [4]) and in the assay with left atrium (setting [7]) was 10 to 20% each time. In addition, the IC50 in the assay with platelet (setting [5]) is 250 µM; in the assay with thoracic aorta (setting [1]), > 1000 µM; in the assay with thoracic aorta (setting [2]), > 1000 µM; on aldose reductase, 0.22 µM. Further, the Contraction result in the assay with left atrium (setting [6]) was “-”.

For the compound `O=C1NC(=O)[C@@]2(C[C@@H](C(=O)NCCO[N+](=O)[O-])Oc3ccc(F)cc32)N1` [Example 13, (2S, 4S)-N-(2-Nitroxyethyl)-6-fluoro-2',5'-dioxospiro[chroman-4,4'-imidazolidine]-2-carboxamide], the IC50 is 240 µM in the assay on platelet (setting [5]), 60 µM in the assay with thoracic aorta (setting [1]), 20 µM in the assay with thoracic aorta (setting [2]) and 0.19 µM at aldose reductase.

In the case of `NNC(=O)[C@@H]1C[C@]2(NC(=O)NC2=O)c2cc(F)ccc2O1` [Example 1, (2S,4S)-6-Fluoro-2',5'-dioxospiro[chroman-4,4'-imidazolidine]-2-carbohydrazide], the IC50 stood at 95 µM in the assay on thoracic aorta (setting [1]), 2 µM with thoracic aorta (setting [2]) and 0.038 µM at aldose reductase.

Take `CC(C(O)c1ccc(O)cc1)N1CCC(Cc2ccccc2)CC1` (centres unmarked) [B, Ifenprodil, reference compound]: the inhibition at 100 µM with right atrium (setting [4]) is > 20%; in the assay with left atrium (setting [7]), 10 to 20%. Also, the inhibition at 10 µM in the assay on right atrium (setting [3]) is > 20%. In addition, the Contraction result with left atrium (setting [6]) is given as “-”.

In the case of `CC(=O)Oc1ccccc1C(=O)O` [Aspirin, reference compound], the IC50 with platelet (setting [5]) stood at 210 µM.
